Experiments:
[1] = test system: Setaria faberii; assay: greenhouse experiment, pre-emergence treatment; assay type: in vivo
From the text: (§1) The seeds of the test plants were sown separately for each species. For the pre-emergence treatment, directly after sowing the active compounds, which had been suspended or emulsified in water, were applied by means of finely distributing nozzles. The containers were irrigated gently to promote germination and growth and subsequently covered with transparent plastic hoods until the plant had rooted. This cover caused uniform germination of the test plants, unless this was adversely affected by reactive compounds. The application rate for a pre-emergence treatment was 0.5 or 1.0 kg of a.s. (active substance)/ha. Depending on the species, the plants were kept at 10-25° C. or 20-35° C. The test period extended over 2 to 4 weeks. During this time, the plants were tended, and their response to the individual treatments was evaluated. Evaluation was carried out using a scale from 0 to 100. 100 means no emergence of the plants, or complete destruction of at least the above-ground parts, and 0 means no damage, or normal course of growth. The plants used in the greenhouse experiments were of the following species: [table]

[2] = test system: Digitaria sanguinalis; assay: greenhouse experiment, pre-emergence treatment; assay type: in vivo
From the text: as §1

[3] = test system: Pharbitis purpurea; assay: greenhouse experiment, post-emergence treatment; assay type: in vivo
From the text: (§2) The seeds of the test plants were sown separately for each species. For the post-emergence treatment, the test plants were first grown to a height of from 3 to 15 cm, depending on the plant habit, and only then treated with the active compounds which had been suspended or emulsified in water. The test plants were for this purpose either sown directly and grown in the same containers, or they were first grown separately as seedlings and transplanted into the test containers a few days prior to treatment. The application rate for the post-emergence treatment was 0.5 or 1.0 kg of a.s. (active substance)/ha. Depending on the species, the plants were kept at 10-25° C. or 20-35° C. The test period extended over 2 to 4 weeks. During this time, the plants were tended, and their response to the individual treatments was evaluated. Evaluation was carried out using a scale from 0 to 100. 100 means no emergence of the plants, or complete destruction of at least the above-ground parts, and 0 means no damage, or normal course of growth. The plants used in the greenhouse experiments were of the following species: [table]

[4] = test system: Amaranthus retroflexus; assay: greenhouse experiment, pre-emergence treatment; assay type: in vivo; details: 1.0 kg/ha
From the text: as §1

[5] = test system: Setaria faberii; assay: greenhouse experiment, post-emergence treatment; assay type: in vivo; details: 1.0 kg/ha
From the text: as §2

Row | melting point | Structure (SMILES) | effect on the harmful plant Setaria faberii ([1]; 1.0 kg/ha) | post-emergence activity against Pharbitis purpurea ([3]; 1.0 kg/ha) | also measured
1 |  | CCC(CC)/C(N)=C(\C#N)C(=O)OCC(C)C [Example 4.5] | very good | very good | effect on the harmful plant Digitaria sanguinalis ([2]; 1.0 kg/ha): very good
2 | 146 °C | CCC(CC)/C(N)=C(\C#N)C(=O)NC [Example 6.2] |  |  | 
3 |  | CCC(CC)/C(N)=C(\C#N)C(=O)OCC(C)(C)C [Example 4.6] | very good | very good | 
4 |  | CCC(CC)/C(N)=C(\C#N)C(=O)OC1COC1 [Example 4.14, 3-Oxetanyl (2Z)-3-amino-2-cyano-4-ethyl-2-hexenoat] | very good |  | 
5 | 140 °C | CCC(CC)/C(N)=C(\C#N)C(=O)OC1CCCC1 [Example 4.11] | very good | very good | 
6 |  | C#CCC(CC)/C(N)=C(\C#N)C(=O)OC(C)C (stereo not drawn) [Example 5.10] | very good |  | 
7 | 105 to 110 °C | CCC(CC)/C(N)=C(\C#N)C(=O)OC1CCOC1 (stereo not drawn) [Example 4.38] |  |  | 
8 |  | CCC(CC)/C(N)=C(\C#N)C(=O)OCCC(F)(F)F [Example 4.22] |  |  | effect on the harmful plant Setaria faberii ([1]; 0.5 kg/ha): very good; effect on the harmful plant Digitaria sanguinalis ([2]; 0.5 kg/ha): very good
9 | 180 °C | CCC(CC)/C(N)=C(\C#N)C(=O)OC1CCCO1 (stereo not drawn) [Example 4.43] |  |  | 
10 | 132 °C | CCC(CC)/C(N)=C(\C#N)C(=O)N(C)C [Example 6.21] |  |  | 
11 | 164 °C | CCC(CC)/C(N)=C(\C#N)C(=O)NC(C)C [Example 6.5] |  |  | 
12 | 165 °C | CCC(CC)/C(N)=C(\C#N)C(=O)O [Example 4.42, (2Z)-3-Amino-2-cyano-4-ethyl-2-hexene acid] |  |  | 
13 |  | CCCC(CCC)/C(N)=C(\C#N)C(=O)OC(C)C [Example 5.6] |  | very good | 
14 | 124 °C | CCNC(=O)/C(C#N)=C(\N)C(CC)CC [Example 6.29] |  |  | 
15 |  | CCC(CC)/C(N)=C(\C#N)C(=O)OC(C)CCl (stereo not drawn) [Example 4.30] | very good |  | effect on the harmful plant Digitaria sanguinalis ([2]; 1.0 kg/ha): very good
16 |  | C#CCC(CC=C)/C(N)=C(\C#N)C(=O)OC(C)C (stereo not drawn) [Example 5.11] |  | very good | 
17 | 104 to 106 °C | CCNC(=O)/C(C#N)=C(\N)C(CC)CC [Example 6.3] | very good | very good | 
18 |  | CCCC(CC)/C(N)=C(\C#N)C(=O)OC(C)C (stereo not drawn) [Example 5.3] | very good |  | 

Row | melting point | Structure (SMILES) | effect on the harmful plant Setaria faberii ([1]; 1.0 kg/ha) | post-emergence activity against Pharbitis purpurea ([3]; 1.0 kg/ha) | also measured
19 |  | CCC(C)OC(=O)/C(C#N)=C(\N)C(CC)CC (stereo not drawn) [Example 4.2] |  |  | effect on the harmful plant Setaria faberii ([1]; 0.5 kg/ha): very good; effect on the harmful plant Digitaria sanguinalis ([2]; 0.5 kg/ha): very good; post-emergence activity against Pharbitis purpurea ([3]; 0.5 kg/ha): very good
20 |  | C#CCOC(=O)/C(C#N)=C(\N)C(CC)CC [Example 4.19] |  |  | effect on the harmful plant Setaria faberii ([1]; 0.5 kg/ha): very good; effect on the harmful plant Digitaria sanguinalis ([2]; 0.5 kg/ha): very good
21 | 125 °C | CCC(CC)/C(N)=C(\C#N)C(=O)OCC1CC1 [Example 4.13] | very good |  | effect on the harmful plant Digitaria sanguinalis ([2]; 1.0 kg/ha): very good
22 | 150 °C | CCC(CC)/C(N)=C(\C#N)C(=O)OC(C)(C)C [Example 4.4] | very good | very good | 
23 |  | CCC(COC)/C(N)=C(\C#N)C(=O)OC(C)C (stereo not drawn) [Example 5.2] | very good | very good | 
24 |  | C=CC(C)OC(=O)/C(C#N)=C(\N)C(CC)CC (stereo not drawn) [Example 4.16] | very good |  | effect on the harmful plant Digitaria sanguinalis ([2]; 1.0 kg/ha): very good
25 |  | CCC(CC)/C(N)=C(\C#N)C(=O)OC(C)C(C)C (stereo not drawn) [Example 4.7] | good | good | 
26 | 115 °C | CCC(CC)/C(N)=C(\C#N)C(=O)SC(C)C [Example 7.3] |  | very good | 
27 |  | CCC(CC)/C(N)=C(\C#N)C(=O)OCCCl [Example 4.23] | very good | very good | 
28 |  | C#CC(C)OC(=O)/C(C#N)=C(\N)C(CC)CC (stereo not drawn) [Example 4.20] | very good | very good | effect on the harmful plant Digitaria sanguinalis ([2]; 1.0 kg/ha): very good
29 |  | CCC(CC)/C(N)=C(\C#N)C(=O)OC(C)C#N (stereo not drawn) [Example 4.35] | good |  | 
30 | 125 °C | CCC(CC)/C(N)=C(\C#N)C(N)=O [Example 6.1] |  |  | 
31 |  | CCC(CC)/C(N)=C(\C#N)C(=O)OCCCCl [Example 4.29] | good | very good | 
32 | 115 °C | CCC(CC)/C(N)=C(\C#N)C(=O)OCC(F)(F)F [Example 4.25] | very good |  | 
33 |  | CCC(CC)/C(N)=C(\C#N)C(=O)OC(C)C [Example 4.1, Isopropyl (2Z)-3-amino-2-cyano-4-ethyl-2-hexenoate] | very good | very good | effect on the harmful plant Amaranthus retroflexus [4]: very good; post-emergence activity against Setaria faberii [5]: very good
34 | 154 °C | CCC(CC)/C(N)=C(\C#N)C(=O)OC1CCCCC1 [Example 4.12] |  |  | 
35 |  | C=CCC(CC)/C(N)=C(\C#N)C(=O)OC(C)C (stereo not drawn) [Example 5.7] | very good | very good | effect on the harmful plant Digitaria sanguinalis ([2]; 1.0 kg/ha): very good
36 |  | C=CCC(CC=C)/C(N)=C(\C#N)C(=O)OC(C)C [Example 5.9] |  | very good | 

— patent US20050009706A1, “Alpha-cyanoacrylates” (priority 2001, published 2005)
